Data on 17 compounds can be found in patent US9840513B2 (AbbVie S.à.r.l., priority 2015, dated 2017).

In the experiment the target is T1, F508delCFTR cell surface expression in CFBE41o-F508delCFTR-HRP cells (Homo sapiens, UniProt P13569, DEL508-508).
T1 construct: fused on or other part: Horseradish peroxidase (HRP) reporter inserted in the fourth exofacial (extracellular) loop of CFTR; expression is doxycycline-inducible
Briefly: Cell Surface Expression-Horse Radish Peroxidase (CSE-HRP) Assay. Conditions: for pEC50: CFBE41o-F508delCFTR-HRP cells, 18-24 hours at 33° C., 8-point curve, highest concentration 20 μM; for Maximum % activity (%): maximum at any tested concentration, normalized to on-plate positive control (3 μM). The experiment is classed as cell-based. An excerpt:
Cell Surface Expression-Horse Radish Peroxidase (CSE-HRP) Assay:
A cellular assay for measuring the F508delCFTR cell surface expression after correction with test compounds was developed in human lung derived epithelial cell line (CFBE41o-) (Veit G et al, (2012) Mol Biol Cell. 23(21): 4188-4202). This was achieved by expressing the F508delCFTR mutation along with a horseradish peroxidase (HRP) in the fourth exofacial loop and then measuring the HRP activity using luminescence readout from these cells, CFBE41o-F508delCFTR-HRP, that were incubated overnight with the test corrector compounds. Briefly, for this primary assay, the CFBE41o-F508delCFTR-HRP cells were plated in 384-well plates (Greiner Bio-one; Cat 781080) at 4,000 cells/well along with 0.5 μg/mL doxycycline to induce the F508delCFTR-HRP expression and further incubated at 37° C., 5% CO2 for 72 hours. The test compounds were then added at the required concentrations and further incubated for 18-24 hours at 33° C. The highest concentration tested was 20 μM with an 8-point concentration response curve using a 3-fold dilution. Three replicate plates were run to determine one EC50. All plates contained negative controls (dimethyl sulfoxide, DMSO) and positive controls (3 μM of 3-[(2R,4R)-4-({[1-(2,2-difluoro-1,3-benzodioxol-5-yl)cyclopropyl]carbonyl}amino)-7-methoxy-3,4-dihydro-2H-chromen-2-yl]benzoic acid) as well as on-plate concentration response of the positive control. Post incubation, the plates were washed 5× times with Dulbecco's phosphate buffered saline (DPBS), followed by the addition of the HRP substrate, luminol (50 μL), and measuring the HRP activity using luminescence readout on EnVision® Multilabel Plate Reader (Perkin Elmer; product number 2104-0010). The raw counts from the experiment are analyzed using Accelrys® Assay Explorer v3.3.
Z′ greater than 0.5 was used as passing quality control criteria for the plates.
The Z′ is defined as: 1−[3*SDPositive Control+3*SDNegative Control/Absolute(MeanPositive Control−MeanNegative Control)] wherein “SD” is standard deviation.
The % activity measured at each of the 8 test concentrations of the test compound was normalized to the on-plate positive control using the following formula: % activity=[(test compound response DMSO response)/(positive control response DMSO response)]*100
The maximum % activity achieved for the test compound at any tested concentration is presented in Table 1 along with the EC50 calculated using the following general sigmoidal curve with variable Hill slope equation (described as Model 42 in the Accelrys® Assay Explorer v3.3 software): y=(a−d)/(1+(x/c)^b)+d
General sigmoidal curve with concentration, response, top, bottom, EC50 and Hill slope.
This model describes a sigmoidal curve with an adjustable baseline, a. The equation can be used to fit curves where response is either increasing or decreasing with respect to the independent variable, “x”.
“x” is a concentration of drug under test.
“a” is the maximum response, and “d” is the minimum response
“c” is the inflection point (EC50) for the curve. That is, “y” is halfway between the lower and upper asymptotes when x=c.
“b” is the slope-factor or Hill coefficient. The sign of b is positive when the response increases with increasing dose and is negative when the response decreases with increasing dose (inhibition).

pEC50: −log10 of the molar value. Where only a bound is given, the exact number is not on record here.

For orientation: pEC50 means the EC50 on a negative log10 scale, so that one unit is a factor of ten.

T1 sequence (P13569 with tags, fused parts or gaps DEL508-508 limits assumed): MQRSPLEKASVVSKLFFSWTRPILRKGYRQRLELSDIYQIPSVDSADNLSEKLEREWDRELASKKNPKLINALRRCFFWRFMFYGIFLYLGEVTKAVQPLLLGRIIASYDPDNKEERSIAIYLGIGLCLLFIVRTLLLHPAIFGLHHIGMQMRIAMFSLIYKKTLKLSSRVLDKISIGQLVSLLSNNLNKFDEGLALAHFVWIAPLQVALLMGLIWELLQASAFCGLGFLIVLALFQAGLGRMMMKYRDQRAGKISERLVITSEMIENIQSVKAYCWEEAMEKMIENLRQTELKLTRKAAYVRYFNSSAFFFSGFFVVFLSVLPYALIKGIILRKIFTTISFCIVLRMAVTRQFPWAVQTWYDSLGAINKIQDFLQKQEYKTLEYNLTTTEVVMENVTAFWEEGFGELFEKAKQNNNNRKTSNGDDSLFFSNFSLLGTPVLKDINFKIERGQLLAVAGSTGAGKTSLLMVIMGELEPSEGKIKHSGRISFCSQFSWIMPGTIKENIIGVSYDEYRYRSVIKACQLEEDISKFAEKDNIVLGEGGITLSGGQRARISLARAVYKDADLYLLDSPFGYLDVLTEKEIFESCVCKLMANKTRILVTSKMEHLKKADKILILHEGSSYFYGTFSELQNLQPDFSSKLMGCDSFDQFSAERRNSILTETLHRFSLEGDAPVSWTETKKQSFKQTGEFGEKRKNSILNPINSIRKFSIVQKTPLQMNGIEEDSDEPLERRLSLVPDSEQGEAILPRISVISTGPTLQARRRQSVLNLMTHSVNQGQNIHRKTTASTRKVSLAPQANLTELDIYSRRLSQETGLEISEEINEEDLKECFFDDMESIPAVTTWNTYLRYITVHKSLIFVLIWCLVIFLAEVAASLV
T1 sequence (P13569 919-1480 limits assumed, stated change not applied): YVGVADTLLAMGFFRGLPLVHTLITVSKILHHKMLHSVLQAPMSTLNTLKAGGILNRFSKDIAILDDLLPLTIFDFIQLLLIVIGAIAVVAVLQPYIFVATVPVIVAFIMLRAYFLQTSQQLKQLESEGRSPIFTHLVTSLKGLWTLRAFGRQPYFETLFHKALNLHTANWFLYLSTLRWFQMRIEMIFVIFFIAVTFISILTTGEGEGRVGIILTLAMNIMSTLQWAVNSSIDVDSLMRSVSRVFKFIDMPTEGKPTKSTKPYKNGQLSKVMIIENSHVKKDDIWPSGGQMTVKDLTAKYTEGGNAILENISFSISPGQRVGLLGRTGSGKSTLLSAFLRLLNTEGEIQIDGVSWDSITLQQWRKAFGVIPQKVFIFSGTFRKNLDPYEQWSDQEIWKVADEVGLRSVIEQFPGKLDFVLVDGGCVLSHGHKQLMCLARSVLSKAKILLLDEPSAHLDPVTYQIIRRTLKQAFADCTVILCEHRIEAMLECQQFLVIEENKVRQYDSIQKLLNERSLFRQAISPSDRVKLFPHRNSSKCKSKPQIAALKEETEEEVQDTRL

Regarding `CC(C)(CO)[C@@H]1Cc2cc(NC(=O)[C@@]3(C)COc4cc5c(cc43)OC(F)(F)O5)c(F)cc2N1C[C@@H](O)CO` (single isomer, unassigned) [Example 141], the pEC50 was 6.02 and the “Maximum % activity (%)” value is reported as 39%.
Take `C[C@]1(C(=O)N[C@@H]2C[C@H](c3ccc(C(=O)O)cc3)Oc3cc(OC(F)F)ccc32)COc2cc3c(cc21)OC(F)(F)O3` [Example 139, 4-[(2R,4R)-7-(difluoromethoxy)-4-{[(7R)-2,2-difluoro-7-methyl-6,7-dihydro-2H-furo[2,3-f][1,3]benzodioxole-7-carbonyl]amino}-3,4-dihydro-2H-1-benzopyran-2-yl]benzoic acid]: the pEC50 is 7.70 and the “Maximum % activity (%)” value is listed as 158%.
On the same counts, the results for `COc1ccc2c(c1)O[C@@H](c1ccc(C(=O)N3C[C@H](O)[C@@H](O)C3)cn1)C[C@H]2NC(=O)[C@@]1(C)COc2cc3c(cc21)OC(F)(F)O3` [Example 249, (7R)—N-[(2R,4R)-2-{5-[(3S,4S)-3,4-dihydroxypyrrolidine-1-carbonyl]pyridin-2-yl}-7-methoxy-3,4-dihydro-2H-1-benzopyran-4-yl]-2,2-difluoro-7-methyl-6,7-dihydro-2H-furo[2,3-f][1,3]benzodioxole-7-carboxamide] are 7.00 and 110%.
As for `CC1(C(=O)Nc2cccc(-c3ccc(C(=O)O)cc3)c2)COc2cc3c(cc21)OC(F)(F)O3` (stereo not shown) [Example 69, 3′-[(2,2-difluoro-7-methyl-6,7-dihydro-2H-furo[2,3-f][1,3]benzodioxole-7-carbonyl)amino][1,1′-biphenyl]-4-carboxylic acid], the negative-log EC50 (pEC50) was 5.86 and the “Maximum % activity (%)” value is 183%.
In the case of `CC1(C(=O)Nc2cccc(-c3ccccc3)n2)COc2cc3c(cc21)OC(F)(F)O3` (stereo not shown) [Example 55, 2,2-difluoro-7-methyl-N-(6-phenylpyridin-2-yl)-6,7-dihydro-2H-furo[2,3-f][1,3]benzodioxole-7-carboxamide], the pEC50 is 5.18 and the “Maximum % activity (%)” value is 159%.
Regarding `Cc1ccc(NC(=O)C2(C)COc3cc4c(cc32)OC(F)(F)O4)cc1-c1cccc(C(=O)O)c1` (stereo not shown) [Example 60, 5′-[(2,2-difluoro-7-methyl-6,7-dihydro-2H-furo[2,3-f][1,3]benzodioxole-7-carbonyl)amino]-2′-methyl[1,1′-biphenyl]-3-carboxylic acid], the pEC50 was 6.20 and the “Maximum % activity (%)” value turned out to be 152%.
Take `COc1ccc2c(c1)O[C@H]([C@H]1CC[C@H](C(=O)O)CC1)C[C@@H]2NC(=O)[C@@]1(C)COc2cc3c(cc21)OC(F)(F)O3` [Example 154, trans-4-[(2S,4S)-4-{[(7R)-2,2-difluoro-7-methyl-6,7-dihydro-2H-furo[2,3-f][1,3]benzodioxole-7-carbonyl]amino}-7-methoxy-3,4-dihydro-2H-1-benzopyran-2-yl]cyclohexane-1-carboxylic acid]: the pEC50 is 6.04 and the “Maximum % activity (%)” value stood at 103%.
In the same order, the values of `COc1ccc2c(c1)O[C@H](Cn1ncccc1=O)C[C@@H]2NC(=O)[C@@]1(C)COc2cc3c(cc21)OC(F)(F)O3` [Example 284, (7R)-2,2-difluoro-N-{(2S,4S)-7-methoxy-2-[(6-oxopyridazin-1(6H)-yl)methyl]-3,4-dihydro-2H-1-benzopyran-4-yl}-7-methyl-6,7-dihydro-2H-furo[2,3-f][1,3]benzodioxole-7-carboxamide] are 5.40 and 40%.
Regarding `C[C@]1(C(=O)Nc2cccc(N3CCOC(CO)C3)n2)COc2cc3c(cc21)OC(F)(F)O3` (stereo partly drawn) [Example 87, (7R)-2,2-difluoro-N-{6-[2-(hydroxymethyl)morpholin-4-yl]pyridin-2-yl}-7-methyl-6,7-dihydro-2H-furo[2,3-f][1,3]benzodioxole-7-carboxamide], the pEC50 is 5.73 and the “Maximum % activity (%)” value came to 100%.
Turning to `C[C@]1(C(=O)Nc2cccc(-c3ccc(C(=O)O)cc3F)n2)COc2cc3c(cc21)OC(F)(F)O3` [Example 123, 4-(6-{[(7R)-2,2-difluoro-7-methyl-6,7-dihydro-2H-furo[2,3-f][1,3]benzodioxole-7-carbonyl]amino}pyridin-2-yl)-3-fluorobenzoic acid], the pEC50 is 5.82 and the “Maximum % activity (%)” value was determined as 189%.
Regarding `COc1ccc2c(c1)O[C@@H](c1nnnn1Cc1ccccc1)C[C@H]2NC(=O)[C@@]1(C)COc2cc3c(cc21)OC(F)(F)O3` [Example 283, (7R)—N-[(2R,4R)-2-(1-benzyl-1H-tetrazol-5-yl)-7-methoxy-3,4-dihydro-2H-1-benzopyran-4-yl]-2,2-difluoro-7-methyl-6,7-dihydro-2H-furo[2,3-f][1,3]benzodioxole-7-carboxamide], the pEC50 is 5.75 and the “Maximum % activity (%)” value is 95%.
On the same counts, the results for `C[C@]1(C(=O)Nc2cccc(N3CCCCC3)n2)COc2cc3c(cc21)OC(F)(F)O3` [Example 119, (7R)-2,2-difluoro-7-methyl-N-[6-(piperidin-1-yl)pyridin-2-yl]-6,7-dihydro-2H-furo[2,3-f][1,3]benzodioxole-7-carboxamide] are 5.93 and 136%.
Consider `COc1ccc2c(c1)O[C@H](c1ccc(=O)[nH]n1)C[C@H]2NC(=O)[C@@]1(C)COc2cc3c(cc21)OC(F)(F)O3` [Example 200, (7R)-2,2-difluoro-N-[(2S,4R)-7-methoxy-2-(6-oxo-1,6-dihydropyridazin-3-yl)-3,4-dihydro-2H-1-benzopyran-4-yl]-7-methyl-6,7-dihydro-2H-furo[2,3-f][1,3]benzodioxole-7-carboxamide], for which the pEC50 was 7.15 and the “Maximum % activity (%)” value is 132%.
In the same order, the values of `CC(C)(CO)c1cc2cc(NC(=O)[C@]3(C)COc4cc5c(cc43)OC(F)(F)O5)c(F)cc2n1C[C@@H](O)CO` [Example 138, (7S)—N-{1-[(2R)-2,3-dihydroxypropyl]-6-fluoro-2-(1-hydroxy-2-methylpropan-2-yl)-1H-indol-5-yl}-2,2-difluoro-7-methyl-6,7-dihydro-2H-furo[2,3-f][1,3]benzodioxole-7-carboxamide] are 5.12 and 23%.
In the same order, the values of `COc1ccc2c(c1)O[C@@H](c1ccc(C(=O)NCC3CNC(=O)C3)cn1)C[C@H]2NC(=O)[C@@]1(C)COc2cc3c(cc21)OC(F)(F)O3` (stereo partly drawn) [Example 231, 6-[(2R,4R)-4-{[(7R)-2,2-difluoro-7-methyl-6,7-dihydro-2H-furo[2,3-f][1,3]benzodioxole-7-carbonyl]amino}-7-methoxy-3,4-dihydro-2H-1-benzopyran-2-yl]-N-[(5-oxopyrrolidin-3-yl)methyl]pyridine-3-carboxamide] are 6.60 and 103%.
With `CC1(C(=O)O)CN(c2cccc(NC(=O)[C@@]3(C)COc4cc5c(cc43)OC(F)(F)O5)n2)C1` [Example 96, 1-(6-{[(7R)-2,2-difluoro-7-methyl-6,7-dihydro-2H-furo[2,3-f][1,3]benzodioxole-7-carbonyl]amino}pyridin-2-yl)-3-methylazetidine-3-carboxylic acid], the pEC50 was 5.88 and the “Maximum % activity (%)” value is 139%.
`C[C@]1(C(=O)N[C@H]2C[C@@H](C3CCN(CC(=O)O)CC3)Oc3cc(OC(F)(F)F)ccc32)COc2cc3c(cc21)OC(F)(F)O3` [Example 184, {4-[(2S,4S)-4-{[(7R)-2,2-difluoro-7-methyl-6,7-dihydro-2H-furo[2,3-f][1,3]benzodioxole-7-carbonyl]amino}-7-(trifluoromethoxy)-3,4-dihydro-2H-1-benzopyran-2-yl]piperidin-1-yl}acetic acid]: the pEC50 is under 4.70 and the “Maximum % activity (%)” value came to 12%.
